According to patent publication US6551583B2, “Antibiofouling method and apparatus for optical sensors” (Airak, Inc,, priority 2000, dated 2003):

Experiment: effectiveness of biocides for optrode protection against biofouling
Conditions: ppb concentrations

## N#Cc1c(Cl)c(Cl)c(Cl)c(C#N)c1Cl [chlorothalonil]
  biocide effectiveness (optrode protection): effective even at ppb concentrations
